Results from article PMC11648681, “Development of machine learning models for the prediction of the skin sensitization potential of cosmetic compounds” (PeerJ, 2024).
“And” between values parts separate entries of the source, which are not always exact repeats. Equal values may be shown once.

Legend:
THP-1 cells = test: CCK-8 cell viability of THP-1 cells after 48 h compound treatment in HaCaT/THP-1 co-culture; format: cell-based, human; settings: 48 h; for final concentration used (highest concentration that maintained at least 80% cell viability): THP-1 cells, CCK-8, single (not double) concentration
Description: (§1) The co-culture system was set up according to the following described method. […] THP-1 cells were collected, centrifuged, and re-suspended in fresh RPMI-1640 medium supplemented with 10% FBS at 2 × 10^6 cells/mL. Then cells are distributed into HaCaT-seeded 96 wells plate with 80 μL (1.6 × 10^5 cells/well).
(§2) The compounds listed in Table 1 were dissolved in DMSO to create stock solutions with a concentration of 500 mg/mL. Eleven concentrations were subsequently prepared using two-fold serial dilutions. These stock solutions were then further diluted 250-fold in RPMI-1640 + 10% FBS medium. Finally, 80 μL of the prepared solutions were added 1:1 to the treated 96-well plates and incubated for 48 h at 37 °C and 5% CO2.
(§3) After 48 h of treatment, the treated cells were collected 100 μL cells per well. The supernatant medium was added 10 μL of CCK-8 (Life-iLab, Shanghai, China) solution to each well and incubated the plate in the incubator for 2–4 h. THP-1 cell viability was determined using standard calculation methods.
(§4) The cytotoxicity of 15 test compounds listed in Table 1 was assessed using THP-1 cells across a concentration range of 1,000 to 3.9 μg/mL. Cell viability was assessed after 48 h of treatment using the CCK-8 assay.

[1] = as above; format: cell-based, human; settings: human; for viability at 48 h, 31.25 μg/mL: Cell viability; for viability at 48 h, 0.976563 μg/mL / viability at 48 h, 3.90625 μg/mL / viability at 48 h, 7.8125 μg/mL / viability at 48 h, 15.625 μg/mL / viability at 48 h, 62.5 μg/mL / viability at 48 h, 125 μg/mL / viability at 48 h, 250 μg/mL / viability at 48 h, 500 μg/mL / viability at 48 h, 1000 μg/mL / viability at 48 h, 1.95312 μg/mL: THP-1, individual replicate values
Description: as §1, §2, §3, §4

[2] = 0.976563 μg/mL, THP-1, individual replicate values
[3] = 1.95312 μg/mL, THP-1, individual replicate values
[4] = 3.90625 μg/mL, THP-1, individual replicate values
[5] = 7.8125 μg/mL, THP-1, individual replicate values
[6] = 15.625 μg/mL, THP-1, individual replicate values
[7] = 62.5 μg/mL, THP-1, individual replicate values
[8] = 125 μg/mL, THP-1, individual replicate values
[9] = 250 μg/mL, THP-1, individual replicate values
[10] = 500 μg/mL, THP-1, individual replicate values
[11] = 1000 μg/mL, THP-1, individual replicate values
[12] = THP-1 cells in co-culture with HaCaT cells

| SMILES | Cell viability (THP-1 cells; [2]) [%] | Cell viability (THP-1 cells; [3]) | Cell viability (THP-1 cells; [4]) [%] | Cell viability (THP-1 cells; [5]) [%] | Cell viability (THP-1 cells; [6]) [%] | Cell viability (THP-1 cells; [7]) [%] | Cell viability (THP-1 cells; [8]) [%] | Cell viability (THP-1 cells; [10]) [%] | Cell viability (THP-1 cells; [11]) [%] | Cell viability (THP-1 cells; human, 31.25 μg/mL) [%] | viability at 48 h, 31.25 μg/mL [1] [%] | viability at 48 h, 0.976563 μg/mL [1, 12] [%] | viability at 48 h, 3.90625 μg/mL [1, 12] [%] | viability at 48 h, 7.8125 μg/mL [1, 12] [%] | viability at 48 h, 15.625 μg/mL [1, 12] [%] | viability at 48 h, 62.5 μg/mL [1, 12] [%] | viability at 48 h, 125 μg/mL [1, 12] [%] | viability at 48 h, 250 μg/mL [1, 12] [%] | viability at 48 h, 500 μg/mL [1, 12] [%] | viability at 48 h, 1000 μg/mL [1, 12] [%] | also measured |
| --- | --- | --- | --- | --- | --- | --- | --- | --- | --- | --- | --- | --- | --- | --- | --- | --- | --- | --- | --- | --- | --- |
| Oc1cccc(O)c1 [resorcinol, Resorcinol] | 87.3677 | 103.314% and 82.4843% | 80.4798 | 98.5964 | 93.1569 | 79.0942 | 70.9013 | 57.2511 | 56.1435 | 84.1435 | 81.4 | 86.4 | 99.3 | 95.8 | 86.8 | 68 | 66.2 | 59.3 | 56.3 | 58.1 | Cell viability (THP-1 cells; [9]): 60.5067% |
| CC(C)(C)c1cc(O)ccc1O [THBQ, Tert-butylhydroquinone] | 94.8298 | 95.9362% | 101.759 | 103.546 | 101.22 | 47.234 | 34.2837 | 18.8014 | 15.3191 | 104.716 | 103 | 95.9 | 97.4 | 117 | 104 | 47.1 | 29.9 | 26.6 | 18.8 | 15.2 | Cell viability (THP-1 cells; [9]): 20.1277%; final concentration used (highest concentration that maintained at least 80% cell viability) (THP-1 cells): 31.25 µg/mL; viability at 48 h, 1.95312 μg/mL [1, 12]: 94.8% |
| N#CCCC(Br)(C#N)CBr (stereo not drawn) [bromoml, 1,2-dibromo-2,4-dicyanobutane] | 102.88 | 103.993% | 108.767 | 57.1729 | 14.391 | 11.8195 | 12.0752 | 12.3985 | 12.3609 | 11.782 | 12 | 97 | 100 | 53.3 | 13.3 | 12.2 | 12.2 | 11.9 | 12.9 | 12.4 | final concentration used (highest concentration that maintained at least 80% cell viability) (THP-1 cells): 3.9 µg/mL; viability at 48 h, 1.95312 μg/mL [1, 12]: 97.1% |
| OCC(O)CO [glycerol, Glycerol] | – | – | – | – | – | – | – | – | – | 116.476 | 105 | 87.7 | 79.1 | – | 93.7 | 110 | 90.6 | 93.5 | 93.4 | 98.4 | viability at 48 h, 1.95312 μg/mL [1, 12]: 93.5%; IC50 at 48 h ([1]; THP-1 cells in co-culture with HaCaT cells, THP-1 cells, 48 h treatment, CCK-8, range 1,000 to 3.9 μg/mL, read-out: IC50 (cytotoxicity)): > 1000 µg/mL |
